{"source": "patent US12403166B2", "about": "“Labisia pumila extract composition and its pharmaceutical formulation” (MEDIKA NATURA SDN. BHD., priority 2021, dated 2025)", "key": {"[1]": {"system": "glutathione peroxidase (GPx)", "test": "Glutathione peroxidase (GPx) in DIO rats (anti-oxidant)", "assay_type": "in vivo, rat", "settings": "30 mg/kg, P≤0.01"}, "[2]": {"system": "glutathione S-transferase (GST)", "settings": "DIO rats, 30 mg/kg, P≤0.05"}}}
{"smiles": "CCCCCCCCCCC[C@@H](C[C@@H]1OC(=O)[C@H]1CCCCCC)OC(=O)[C@H](CC(C)C)NC=O", "note": "[Orlistat]", "values": [{"measurement": "increase in GPx as compared to DIO control group", "setting": "[1]", "value": 40.9, "unit": "%"}, {"measurement": "increase in GST as compared to DIO control group", "setting": "[2]", "value": 10.4, "unit": "%"}]}
